The source made the active and inactive calls. The rule behind the calls is not given here.
Assays:
Rattus norvegicus [1] = assay: Antidiabetic activity in overnight fastedRattus norvegicus albino (rat) assessed as reduction in blood glucose level at 20 mg/kg, po measured after 60 min by oral glucose tolerance test relative to control (reference value: 78.0 +/- 1.167 mg/dl); format: functional
Rattus norvegicus [2] = assay: Antidiabetic activity in Rattus norvegicus albino (rat) assessed as inhibition in rise of blood glucose level at 20 mg/kg, po administered 30 min prior to glucose challenge measured post 60 min of challenge by oral glucose tolerance test relative to control; format: functional

Structure (SMILES)	Activity (Rattus norvegicus [1])	inhibition in vivo at 20 mg/kg (Rattus norvegicus [2])	inhibition (Rattus norvegicus [2])
Cc1ccc(S(=O)(=O)NC(=O)NN2CC3CCCC3C2)cc1 (stereo not drawn) [GLICLAZIDE]	58.2 mg/dL	61.4%	–
COc1ccc(C2=NN(c3ccc(S(=O)(=O)NC(=O)NCc4ccccc4)cc3)C(=O)CC2)cc1	–	41.4%	–
CCc1ccc(C2=NN(c3ccc(S(=O)(=O)NC(=O)NCc4ccccc4)cc3)C(=O)CC2)cc1	62 mg/dL	86.9%	–
Cc1ccc(C2=NN(c3ccc(S(=O)(=O)NC(=O)NCc4ccccc4)cc3)C(=O)CC2)c(C)c1	–	6.5%	–
Cc1ccc(C2=NN(c3ccc(S(=O)(=O)NC(=O)NCc4ccccc4)cc3)C(=O)CC2)cc1	–	–	inactive
O=C(NCc1ccccc1)NS(=O)(=O)c1ccc(N2N=C(c3ccc(Oc4ccccc4)cc3)CCC2=O)cc1	–	–	inactive
